The data set is described as follows: Determination of bio-accumulation: urinary clearance pharmacokinetic study in rats. The format is in vivo, male Sprague Dawley rats.

Results on 2 molecules are retold here after US7659333B2, “Fluorinated surfactants for use in making a fluoropolymer” (3M Innovative Properties Company, priority 2005, dated 2010).

Method: The goal was to measure the total amount of parent compound eliminated via urinary output and estimate the rate of elimination.
The study utilized male Sprague Dawley rats, 6 to 8 weeks of age, and approximately 200 to 250 g body weight at study onset. The test compounds of table 2 were administered at a dose of 73 micro Moles per kg body weight in rats (N=3 animals per tested compound). All test compounds were prepared in sterile deionized water and given to rats via oral gavage. After test compounds administration, the rats were housed individually in metabolism cages for urine collection: 0 to 6 hours, 6 to 24 hours, 24 to 48 hours and 72 to 96 hours. Animals were observed throughout the study for clinical signs of toxicity. Gross necropsy was performed at the termination of each study (96 hours post-dose) with sera and liver samples being retained from each animal.
The concentration of the parent compound or metabolites thereof were quantitatively measured via fluorine NMR on each urine sample for each animal at each time point based on internally added standards.
T ½ and % recovery are based on elimination of the major metabolite—C3F7—O—CHFCOO^−. T1/2 is the renal half-life and is the time required for the amount of a particular substance in a biological system to be reduced to one half of its value by biological processes when the rate of removal is approximately exponential. In these examples the value of T1/2 is calculated by exponential least squares curve fitting (y=Ae^Bx and T1/2=0.693/B) where y represents the concentration of analyte in urine and x represents time in hours.

In general, half-life refers to the time in which the quantity being followed falls by half. As to `N.O=C(O)C(F)(F)C(F)(F)C(F)(F)C(F)(F)C(F)(F)C(F)(F)C(F)(F)F` [APFO, ammonium perfluorooctanoic acid], where the note is “male Sprague Dawley rats, 73 micro Moles per kg oral gavage, recovery in urine after 96 h, values marked * based on major metabolite C3F7—O—CHFCOO−”, the “% Recovery (96 h)” value is on record as 6%. Further, the “Compound-related Effects” value (male Sprague Dawley rats, 73 micro Moles per kg oral gavage, clinical signs observed, gross necropsy at 96 hours post-dose) is “Hepatomegaly”. The half-life (rat, in vivo, 73 micro Moles per kg body weight, male Sprague Dawley rats, 73 micro Moles per kg oral gavage, urine 0-96 h by fluorine NMR, exponential least squares fit, values marked * based on elimination of major metabolite C3F7—O—CHFCOO−, read-out: T ½ (h) (renal half-life)) was approximately 550 h.

Consider C3F7—O—C2HF3—O—CH2—COO^−NH4 [Example 2], for which, under “rat, in vivo, po”, the “parent compound in the urine” value was “No parent compound observed in the urine”.
